Assay results from patent US20110076293A1, “TRIPTOLIDE DERIVATIVES FOR MODULATION OF APOPTOSIS AND IMMUNOSUPPRESSION” (priority 2002, published 2011).
Read-outs that look alike come from different tables or passages of the source.

System: Jurkat human T lymphocyte cell line
Experiment: Apoptosis assay (Annexin V) of compounds incubated with human serum
Settings: for EC50: read-out: ED50 (nM) in apoptosis assay after incubation with serum, 37° C.
Procedure, shortened: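 Test compounds at 20 mM were preincubated in pooled human serum at 37° C for varying times, then serially diluted to final 1–10,000 nM. Jurkat cells (1×10^5 per well) were exposed for 24 h at 37° C, and apoptosis was scored by Annexin V-FITC flow cytometry. ED50 came from dose-response curves, and % conversion was expressed relative to the triptolide ED50 in the same serum.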

[1] = Table 3, human serum, 0 hr, 10000 nM
[2] = Table 3, human serum, 48 hr, 1 nM
[3] = Table 3, human serum, 48 hr, 3 nM
[4] = Table 3, human serum, 48 hr, 10 nM
[5] = Table 3, human serum, 48 hr, 30 nM
[6] = Table 3, human serum, 48 hr, 100 nM
[7] = Table 3, human serum, 48 hr, 300 nM
[8] = Table 3, human serum, 48 hr, 1000 nM
[9] = Table 3, human serum, 48 hr, 3000 nM
[10] = Table 3, human serum, 48 hr, 10000 nM
[11] = Table 4, serum, 48 hr, 10000 nM
[12] = Table 5, human serum (48 hrs), 1 nM
[13] = Table 5, human serum (48 hrs), 3 nM
[14] = Table 5, human serum (48 hrs), 10 nM
[15] = Table 5, human serum (48 hrs), 30 nM
[16] = Table 5, human serum (48 hrs), 100 nM
[17] = Table 5, human serum (48 hrs), 300 nM
[18] = Table 5, human serum (48 hrs), 1000 nM
[19] = Table 5, human serum (48 hrs), 3000 nM
[20] = after 48 hr. incubation in human serum
[21] = incubation time in human serum 0.5 hours
[22] = incubation time in human serum 1 hour
[23] = incubation time in human serum 24 hours
[24] = incubation time in human serum 48 hours

## CC(C)[C@]12O[C@H]1[C@@H]1O[C@]13[C@]1(O[C@H]1C[C@H]1C4=C(CC[C@@]13C)C(=O)OC4)[C@@H]2O [PG490, Triptolide]
[1]
  % apoptotic cells at given concentration (nM): 94.9%
[2]
  % apoptotic cells at given concentration (nM): 8.5%
[3]
  % apoptotic cells at given concentration (nM): 8.5%
[4]
  % apoptotic cells at given concentration (nM): 8.5%
[5]
  % apoptotic cells at given concentration (nM): 26.2%
[6]
  % apoptotic cells at given concentration (nM): 91.7%
[7]
  % apoptotic cells at given concentration (nM): 93.4%
[8]
  % apoptotic cells at given concentration (nM): 94.6%
[9]
  % apoptotic cells at given concentration (nM): 95.2%
[10]
  % apoptotic cells at given concentration (nM): 95.4%
Table 3, medium only, 10000 nM
  % apoptotic cells at given concentration (nM): 96.5%
Table 4, medium, 10000 nM
  % apoptotic cells at given concentration (nM): 93.4%
Table 4, serum, 0 hr, 10000 nM
  % apoptotic cells at given concentration (nM): 92.1%
Table 4, serum, 48 hr, 0.03 nM
  % apoptotic cells at given concentration (nM): 7.0%
Table 4, serum, 48 hr, 0.1 nM
  % apoptotic cells at given concentration (nM): 6.9%
Table 4, serum, 48 hr, 0.3 nM
  % apoptotic cells at given concentration (nM): 6.8%
Table 4, serum, 48 hr, 1 nM
  % apoptotic cells at given concentration (nM): 6.4%
Table 4, serum, 48 hr, 3 nM
  % apoptotic cells at given concentration (nM): 7.0%
Table 4, serum, 48 hr, 10 nM
  % apoptotic cells at given concentration (nM): 7.1%
Table 4, serum, 48 hr, 30 nM
  % apoptotic cells at given concentration (nM): 29.4%
Table 4, serum, 48 hr, 100 nM
  % apoptotic cells at given concentration (nM): 90.9%
Table 4, serum, 48 hr, 300 nM
  % apoptotic cells at given concentration (nM): 93.0%
Table 4, serum, 48 hr, 1000 nM
  % apoptotic cells at given concentration (nM): 93.2%
Table 4, serum, 48 hr, 3000 nM
  % apoptotic cells at given concentration (nM): 94.6%
[11]
  % apoptotic cells at given concentration (nM): 94.2%
[12]
  % apoptotic cells at given concentration (nM): 8.8%
[13]
  % apoptotic cells at given concentration (nM): 8.5%
[14]
  % apoptotic cells at given concentration (nM): 8.6%
[15]
  % apoptotic cells at given concentration (nM): 15.9%
[16]
  % apoptotic cells at given concentration (nM): 86.5%
[17]
  % apoptotic cells at given concentration (nM): 90.7%
[18]
  % apoptotic cells at given concentration (nM): 91.7%
[19]
  % apoptotic cells at given concentration (nM): 93.1%
Table 5, medium, 3000 nM
  % apoptotic cells at given concentration (nM): 93.7%

## CCNC(=O)O[C@@H]1[C@@]2(C(C)C)O[C@H]2[C@@H]2O[C@]23[C@]12O[C@H]2C[C@H]1C2=C(CC[C@@]13C)C(=O)OC2 [PG666, Triptolide 14-Ethyl Carbamate]
[1]
  % apoptotic cells at given concentration (nM): 93.6%
[2]
  % apoptotic cells at given concentration (nM): 13.4%
[3]
  % apoptotic cells at given concentration (nM): 14.4%
[4]
  % apoptotic cells at given concentration (nM): 14.0%
[5]
  % apoptotic cells at given concentration (nM): 10.1%
[6]
  % apoptotic cells at given concentration (nM): 11.0%
[7]
  % apoptotic cells at given concentration (nM): 20.6%
[8]
  % apoptotic cells at given concentration (nM): 91.0%
[9]
  % apoptotic cells at given concentration (nM): 92.9%
[10]
  % apoptotic cells at given concentration (nM): 93.5%
Table 3, medium only, 10000 nM
  % apoptotic cells at given concentration (nM): 94.3%
Table 4, medium, 10000 nM
  % apoptotic cells at given concentration (nM): 92.6%
Table 4, serum, 0 hr, 10000 nM
  % apoptotic cells at given concentration (nM): 87.2%
Table 4, serum, 48 hr, 0.03 nM
  % apoptotic cells at given concentration (nM): 39.9%
Table 4, serum, 48 hr, 0.1 nM
  % apoptotic cells at given concentration (nM): 40.7%
Table 4, serum, 48 hr, 0.3 nM
  % apoptotic cells at given concentration (nM): 40.8%
Table 4, serum, 48 hr, 1 nM
  % apoptotic cells at given concentration (nM): 41.3%
Table 4, serum, 48 hr, 3 nM
  % apoptotic cells at given concentration (nM): 39.8%
Table 4, serum, 48 hr, 10 nM
  % apoptotic cells at given concentration (nM): 39.8%
Table 4, serum, 48 hr, 30 nM
  % apoptotic cells at given concentration (nM): 39.1%
Table 4, serum, 48 hr, 100 nM
  % apoptotic cells at given concentration (nM): 40.2%
Table 4, serum, 48 hr, 300 nM
  % apoptotic cells at given concentration (nM): 44.5%
Table 4, serum, 48 hr, 1000 nM
  % apoptotic cells at given concentration (nM): 88.6%
Table 4, serum, 48 hr, 3000 nM
  % apoptotic cells at given concentration (nM): 96.8%
[11]
  % apoptotic cells at given concentration (nM): 92.3%
[12]
  % apoptotic cells at given concentration (nM): 9.8%
[13]
  % apoptotic cells at given concentration (nM): 10.9%
[14]
  % apoptotic cells at given concentration (nM): 10.4%
[15]
  % apoptotic cells at given concentration (nM): 10.2%
[16]
  % apoptotic cells at given concentration (nM): 9.5%
[17]
  % apoptotic cells at given concentration (nM): 14.9%
[18]
  % apoptotic cells at given concentration (nM): 87.7%
[19]
  % apoptotic cells at given concentration (nM): 91.0%
Table 5, medium, 1 nM
  % apoptotic cells at given concentration (nM): 13.9%
Table 5, medium, 3 nM
  % apoptotic cells at given concentration (nM): 13.1%
Table 5, medium, 10 nM
  % apoptotic cells at given concentration (nM): 13.4%
Table 5, medium, 30 nM
  % apoptotic cells at given concentration (nM): 13.0%
Table 5, medium, 100 nM
  % apoptotic cells at given concentration (nM): 13.2%
Table 5, medium, 300 nM
  % apoptotic cells at given concentration (nM): 14.2%
Table 5, medium, 1000 nM
  % apoptotic cells at given concentration (nM): 14.1%
Table 5, medium, 3000 nM
  % apoptotic cells at given concentration (nM): 92.1%
[20]
  apoptotic activity (in words): more active than PG688
  concentration for equal apoptotic activity relative to PG490 (triptolide): ~10 fold

## CC(C)[C@]12O[C@H]1[C@@H]1O[C@]13[C@]1(O[C@H]1C[C@H]1C4=C(CC[C@@]13C)C(=O)OC4)[C@@H]2OC(=O)CCC(=O)O [PG490-88, triptolide-14-succinate, reference compound]
[1]
  % apoptotic cells at given concentration (nM): 89.2%
[2]
  % apoptotic cells at given concentration (nM): 7.8%
[3]
  % apoptotic cells at given concentration (nM): 8.1%
[4]
  % apoptotic cells at given concentration (nM): 7.8%
[5]
  % apoptotic cells at given concentration (nM): 9.1%
[6]
  % apoptotic cells at given concentration (nM): 51.5%
[7]
  % apoptotic cells at given concentration (nM): 92.1%
[8]
  % apoptotic cells at given concentration (nM): 93.9%
[9]
  % apoptotic cells at given concentration (nM): 94.1%
[10]
  % apoptotic cells at given concentration (nM): 95.1%
Table 3, medium only, 10000 nM
  % apoptotic cells at given concentration (nM): 93.8%
Table 4, medium, 10000 nM
  % apoptotic cells at given concentration (nM): 89.7%
Table 4, serum, 0 hr, 10000 nM
  % apoptotic cells at given concentration (nM): 82.9%
Table 4, serum, 48 hr, 0.03 nM
  % apoptotic cells at given concentration (nM): 6.6%
Table 4, serum, 48 hr, 0.1 nM
  % apoptotic cells at given concentration (nM): 6.5%
Table 4, serum, 48 hr, 0.3 nM
  % apoptotic cells at given concentration (nM): 7.0%
Table 4, serum, 48 hr, 1 nM
  % apoptotic cells at given concentration (nM): 6.0%
Table 4, serum, 48 hr, 3 nM
  % apoptotic cells at given concentration (nM): 6.2%
Table 4, serum, 48 hr, 10 nM
  % apoptotic cells at given concentration (nM): 6.2%
Table 4, serum, 48 hr, 30 nM
  % apoptotic cells at given concentration (nM): 6.8%
Table 4, serum, 48 hr, 100 nM
  % apoptotic cells at given concentration (nM): 30.5%
Table 4, serum, 48 hr, 300 nM
  % apoptotic cells at given concentration (nM): 89.6%
Table 4, serum, 48 hr, 1000 nM
  % apoptotic cells at given concentration (nM): 92.6%
Table 4, serum, 48 hr, 3000 nM
  % apoptotic cells at given concentration (nM): 92.8%
[11]
  % apoptotic cells at given concentration (nM): 93.9%
[12]
  % apoptotic cells at given concentration (nM): 8.6%
[13]
  % apoptotic cells at given concentration (nM): 9.3%
[14]
  % apoptotic cells at given concentration (nM): 8.7%
[15]
  % apoptotic cells at given concentration (nM): 7.8%
[16]
  % apoptotic cells at given concentration (nM): 23.3%
[17]
  % apoptotic cells at given concentration (nM): 88.4%
[18]
  % apoptotic cells at given concentration (nM): 90.5%
[19]
  % apoptotic cells at given concentration (nM): 91.7%
Table 5, medium, 3000 nM
  % apoptotic cells at given concentration (nM): 64.8%
[21]
  Conversion, as relative ED50 compared to triptolide (%): 2%
  EC50: 2580 nM
[22]
  Conversion, as relative ED50 compared to triptolide (%): 2%
  EC50: 2270 nM
[23]
  Conversion, as relative ED50 compared to triptolide (%): 18%
  EC50: 328 nM
[24]
  Conversion, as relative ED50 compared to triptolide (%): 43%
  EC50: 147 nM
